Entries after “also recorded” stand apart in the source; their conditions may differ.
Assays:
Ramos cells [1] = test: Apoptosis of Ramos cells, Annexin V-FITC/PI, vs AMD3100; format: cell-based, human; details: 24 hours, antibody 10 μg/mL, AMD3100 6 μM
Experimental: Cells were stained with Annexin V-FITC and propidium iodide (A). The percent of cells positive for Annexin V only or both Annexin V and PI double positive was determined (B).
Cells were stained with Annexin V-FITC and propidium iodide (PI).

Ramos cells [2] = test: Ramos cell proliferation, Cell-Titer-Glo; format: cell-based, human; details: 72 hours
Experimental: Ramos cells were suspended at 1×10^5 cells/mL in growth media, incubated with the relevant antibodies, including isotype controls, and other test agents and cultured for 72 hours at 37° C. Cell-Titer-Glo (Promega) was added to wells, mixed, and incubated at room temperature for 10 minutes. The plate was read on a GloMax Luminometer (Promega).

[3] = tested on: Bortezomib-resistant JJN-3R cells; test: JJN-3R MM xenograft in SCID mice; format: in vivo; details: lenalidomide 50 mg/kg/dose IP, bortezomib 0.8 mg/kg/dose IV
OPM-2 cells = test: OPM-2 MM xenograft in SCID mice
Description: OPM-2 cells (10 million) were implanted into SCID mice as described.

MOLP-8 cells = test: MOLP-8 MM xenograft in SCID mice; format: in vivo; details: for efficacy in MOLP8 tumors: lenalidomide 50 mg/kg, bortezomib 0.8 mg/kg, BMS-936564 10 mg/kg/dose
Experimental: In all the experiments, the mice were injected intraperitoneally on Days 0 and 7 with an IgG4 isotype control and a PBS vehicle control.

RPMI-8226 cells = test: RPMI-8226 MM xenograft in SCID mice; format: in vivo
Experimental: The mice were randomized (n=8) when the tumor volume reached approximately 20 mm^3, dosed on Days 0, 3, 7, 10 and 14 with MDX-1338 (10 mg/kg/dose) alone or in combination with 50 mg/kg lenalidomide or in combination with 0.8 mg/kg bortezomib.

parental JJN-3 cells = test: JJN-3 MM xenograft in SCID mice; format: in vivo; details: bortezomib 0.8 mg/kg/dose IV, lenalidomide 50 mg/kg/dose IP
Description: 5 million JJN-3 cells/mouse were implanted into SCID mice and the mice were randomized into groups of 8 when the tumor volume reached approximately 77 mm^3.

MM.1S cells = test: MM.1S MM xenograft in SCID mice; format: in vivo
[4] = tested on: human umbilical vein endothelial cells (HuVEC); test: HuVEC capillary tube formation; format: cell-based; details: HuVEC on MATRIGEL, 18 hours
Experimental: In this example, the ability of the anti-CXCR4 human antibodies to inhibit capillary tube formation by human umbilical vein endothelial cells (HuVEC) was examined […]® was diluted 1:1 with RPMI and plated onto the wells of a 96 well plate and allowed to polymerize for 30 minutes at 37° C. HuVEC (from Cambrex, cat. # CC-2519) at 80% confluence were trypsinized and resuspended at 1×10^6 cells per ml in RPMI with 0.5% FBS. Antibodies were well mixed with HuVEC at a final concentration of 3 mg/ml and allowed to incubate at room temperature for 30 minutes. An irrelevant antibody of the same isotype or media alone was used as a negative control. As a positive control of inhibition of tube formation, a mouse anti-human αvβ3 (CD51/CD61) antibody (R&D Systems, cat. # MAB3050) was used. HuVEC with or without antibodies were plated onto the […]®-coated wells and incubated at 37° C. for 18 hours.
The HuVEC incubated with media alone or with the isotype-matched control antibody formed capillary tubes resulting in the appearance of connected cells across the plate with 3-5 points of connection or branch points per cell. […] The cells appeared isolated and with few or no branch points.

CXCR4 [5] = target: T1, CXCR4 (Homo sapiens, UniProt P61073); test: 125I-CXCL12 binding competition on CEM cells (first experiment); details: 100 pM 125I-CXCL12
Experimental: A comparison of anti-CXCR4 antibodies on blocking CXCL12 binding to CEM cells was performed by a standard radio-labeled ligand binding assay. The anti-CXCR4 antibodies were serially diluted 1:3 to yield a range of concentrations from 300 nM to 137 pM. […] An irrelevant antibody of the same isotype was used as a negative control.

CXCR4 [6] = target: T1, CXCR4; test: CXCL12-induced calcium flux in CEM cells (Calcium 3 dye); format: cell-based; details: 50 nM CXCL12α
Description: As a negative control, an irrelevant antibody of the same isotype was used.

CXCR4 [7] = target: T1, CXCR4; test: CXCL12-induced migration of CEM cells (first experiment); format: cell-based; details: 5 nM CXCL12α
Experimental: The anti-CXCR4 antibodies were titrated in a 1:3 serial dilution series resulting in a concentration range from 100 nM to 1 pM and allowed to bind to labeled CEM cells at a density of 10 million cells per ml. As a negative control, an irrelevant antibody of the same isotype was used. Recombinant human CXCL12α (Peprotech) was added at 5 nM at 30 μl per well to the lower chamber of a 96 well Neuroprobe migration plate with 5.7 mm diameter filters per well. Each well contains […]. Labeled CEM cells with and without antibody were loaded onto the filters at a concentration of 0.5 million cells per well in a volume of 50 μl. The migration plate was incubated at 37° C. for 2.5 hours. […] The chemiluminescent signal was recorded on a Fusion instrument.

Ramos tumor cells = test: Ramos cell proliferation, 3H-thymidine incorporation; format: cell-based, human; details: 10^−3 to 300 nM; 72 hours
Experimental: In this example, the ability of the anti-CXCR4 human antibodies to inhibit proliferation of Ramos tumor cells (a human Burkitt's lymphoma cell line) in vitro was examined. […] The cells were incubated with antibody for 72 hours, with ^3H-thymidine being added for the final 24 hours of incubation to allow for monitoring of cell proliferation. Following the incubation, incorporation of ^3H-thymidine by the cells was measured by standard techniques. The results are shown in the graph of FIG. 11A.

CXCR4 [8] = target: T1, CXCR4; test: Competition with FITC-labeled F9 for binding to CEM cells; details: 300 nM to 5 pM
Experimental: To determine the ability of a panel of anti-CXCR4 antibodies to compete for binding to CXCR4, competition studies were performed. […] The mixture of antibodies was then added to CEM cells and allowed to bind.

T1 sequence (P61073 whole entry): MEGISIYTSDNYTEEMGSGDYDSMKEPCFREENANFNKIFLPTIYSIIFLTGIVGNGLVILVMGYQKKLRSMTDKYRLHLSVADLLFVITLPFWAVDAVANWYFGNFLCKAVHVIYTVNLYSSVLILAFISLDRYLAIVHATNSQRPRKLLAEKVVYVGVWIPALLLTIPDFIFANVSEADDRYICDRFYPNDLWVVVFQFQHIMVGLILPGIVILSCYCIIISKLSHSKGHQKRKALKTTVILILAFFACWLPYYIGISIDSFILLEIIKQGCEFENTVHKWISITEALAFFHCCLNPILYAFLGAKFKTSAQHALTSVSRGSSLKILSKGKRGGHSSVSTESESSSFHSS

c1cc(CN2CCCNCCNCCCNCC2)ccc1CN1CCCNCCNCCCNCC1 [AMD3100, Plerixafor]
percent of cells Annexin V/PI double positive (Ramos cells [1]): 2.7%
percent of cells positive for Annexin V only (Ramos cells [1]): 2.0%
inhibition of Ramos cell proliferation (Ramos cells [2]): did not inhibit proliferation

CC[C@@]1(O)C(=O)OCc2c1cc1n(c2=O)Cc2cc3ccccc3nc2-1 [Camptothecin]
inhibition of Ramos cell proliferation (Ramos cells [2]; 10 μM): completely inhibited cell proliferation

CC(C)C[C@H](NC(=O)[C@H](Cc1ccccc1)NC(=O)c1cnccn1)B(O)O [bortezomib, reference compound]
tumor growth inhibition [3]: Neither lenalidomide nor bortezomib alone inhibited tumor growth
median tumor growth inhibition (OPM-2 cells; Day 24, compared to vehicle control, MDX-1338 10 mg/kg/dose IP, bortezomib 0.8 mg/kg/dose IV): 75%
efficacy in MOLP8 tumors (MOLP-8 cells): relatively resistant
mean tumor growth inhibition (RPMI-8226 cells; Day 44, compared to isotype control, MDX-1338 10 mg/kg, lenalidomide 50 mg/kg, bortezomib 0.8 mg/kg): 70%
efficacy in inhibiting tumor growth (parental JJN-3 cells): marginal efficacy

Nc1cccc2c1CN(C1CCC(=O)NC1=O)C2=O (stereo not shown) [lenalidomide, reference compound]
mean tumor growth inhibition (MM.1S cells; Day 25, compared to isotype control, MDX-1338 10 mg/kg/dose, lenalidomide 100 mg/kg): 70%
tumor growth inhibition (MM.1S cells; MM.1S): REVLIMID ® = 70%
tumor growth inhibition [3]: Neither lenalidomide nor bortezomib alone inhibited tumor growth
efficacy in OPM-2 model (OPM-2 cells; lenalidomide 50 mg/kg/dose IP): minimal efficacy
tumor growth inhibition (MOLP-8 cells; MOLP8): alone = 35%
efficacy in MOLP8 tumors (MOLP-8 cells): relatively resistant
efficacy in RPMI-8226 model (RPMI-8226 cells; 50 mg/kg): marginal efficacy
efficacy in inhibiting tumor growth (parental JJN-3 cells): ineffective in inhibiting tumor growth

B1: E2: human anti-CXCR4 monoclonal antibody; VH SEQ ID NO: 28, VL SEQ ID NO: 32 (antibody, listed as Homo sapiens, V domains shown)
VH: EVQLVQSGGGLVQPGGSLRLSCAAAGFTFSSYSMNWVRQAPGKGLEWVSYISSRSRTIYYADSVKGRFTISRDNAKNSLYLQMNSLRDEDTAVYYCARDYGGQPPYHYYYGMDVWGQGTTVTVSS
VL: EIVLTQSPSSLSASVGDRVTITCRASQGISNWLAWYQQKPEKAPKSLIYAASSLQSGVPSRFSGSGSGTDFTLTISSLQPEDFATYYCQQYNSYPRTFGQGTKVEIK
inhibition of capillary tube formation [4]: did not inhibit capillary tube formation
blockade of CXCL12 binding to CXCR4 (CXCR4 [5]): did not effectively block CXCL12 binding
inhibition of CXCL12α-induced calcium flux (CXCR4 [6]): did not significantly inhibit
inhibition of CXCL12α-induced migration (CXCR4 [7]): did not significantly inhibit migration
inhibition of Ramos cell proliferation (3H-thymidine incorporation) (Ramos tumor cells): able to inhibit Ramos cell proliferation
ability to compete with F9 for binding to CEM cells (CXCR4 [8]): able to compete with F9; also recorded: partial inhibition at high concentrations

B2: D1: human anti-CXCR4 monoclonal antibody; VH SEQ ID NO: 27, VL SEQ ID NO: 31 (antibody, listed as Homo sapiens, V domains shown)
VH: EVQLVQSGGGLVQPGGSLRLSCAAAGFTFSSYSMNWVRQAPGKGLEWVSYISSRSKTIYYADSVKGRFTISRDNARNSLYLQMNSLRDEDTAVYYCARDYGGQPPYYYYYGMDVWGQGTTVTVSS
VL: VIWVTQSPSSLSASVGDRVTITCRTSQGISSWLAWYQQKPEKAPELLIYAASSLQSGVPSRFSGSGSGTDFTLTISSLQPEDFATYYCQQYNSYPRTFGQGTKVEIK
inhibition of CXCL12α-induced migration (CXCR4 [7]): did not significantly inhibit migration
ability to compete with F9 for binding to CEM cells (CXCR4 [8]): able to compete with F9

Source: US10428151B2, “Treatment of hematologic malignancies with an anti-CXCR4 antibody” (BRISTOL-MYERS SQUIBB COMPANY, priority 2011, dated 2019)
